Experimental data as given in ChEMBL document CHEMBL3352080, “Kojic acid derived hydroxypyridinone-chloroquine hybrids: synthesis, crystal structure, antiplasmodial activity and β-haematin inhibition” (Bioorg Med Chem Lett, 2014).

Tests used:
[1] = tested on: Plasmodium falciparum; test: Resistance index, ratio of IC50 for Plasmodium falciparum K1 to IC50 for Plasmodium falciparum 3D7; format: functional
[2] = Inhibition of beta-haematin complex formation after 60 mins by spectrophotometry relative to chloroquine; format: physicochemical
[3] = tested on: Plasmodium falciparum; test: Antiplasmodial activity against Plasmodium falciparum K1 infected in erythrocytes assessed as [3H]hypoxanthine incorporation after 24 hrs by microbeta scintillation counting analysis; format: functional, organism-based
[4] = tested on: Plasmodium falciparum; test: Antiplasmodial activity against Plasmodium falciparum 3D7 infected in erythrocytes assessed as [3H]hypoxanthine incorporation after 24 hrs by microbeta scintillation counting analysis; format: functional, organism-based

With `Cn1cc(OCc2ccccc2)c(=O)cc1CNCCNc1ccnc2cc(Cl)ccc12` the “Ratio IC50” value [1] was 4.7, the IC50 [2] was 1.27 equiv and the IC50 [3] was 2.56 µM. It also gave an IC50 [4] of 0.54 µM.
`CN(CCCNc1ccnc2cc(Cl)ccc12)Cc1cc(=O)c(O)cn1C` gave a Ratio IC50 [1] of 1, an IC50 [2] of 1.95 equiv and an IC50 [3] of 0.27 µM. For the same compound, the IC50 [4] was 0.04 µM.
`Cn1cc(O)c(=O)cc1CNCCNc1ccnc2cc(Cl)ccc12` showed a Ratio IC50 [1] of 3, an IC50 [2] of 0.63 equiv and an IC50 [3] of 1.45 µM. It also gave an IC50 [4] of 0.58 µM.
Compound `O=c1cc(CNCCCNc2ccnc3cc(Cl)ccc23)n(C2CC2)cc1O` has a Ratio IC50 [1] of 3.6, an IC50 [2] of 2.62 equiv and an IC50 [3] of 0.85 µM. The IC50 [4] was 0.16 µM.
With `O=c1cc(CNCCCCNc2ccnc3cc(Cl)ccc23)n(C2CC2)cc1OCc1ccccc1` the Ratio IC50 [1] was 5.3, the IC50 [2] was 0.82 equiv and the IC50 [3] was 0.32 µM. It also gave an IC50 [4] of 0.16 µM.
In the case of `O=c1cc(CNCCNc2ccnc3cc(Cl)ccc23)n(C2CC2)cc1O`, the Ratio IC50 [1] is reported as 1.6, the IC50 [2] is reported as 1.41 equiv and the IC50 [3] is reported as 0.46 µM. It also gave an IC50 [4] of 0.3 µM.
With `O=c1cc(CNCCCCNc2ccnc3cc(Cl)ccc23)n(C2CC2)cc1O` the Ratio IC50 [1] was 2.1, the IC50 [2] was 2.57 equiv and the IC50 [3] was 0.03 µM. It also gave an IC50 [4] of 0.004 µM.
With `Cn1cc(OCc2ccccc2)c(=O)cc1CNCCCNc1ccnc2cc(Cl)ccc12` the “Ratio IC50” value [1] was 3, the IC50 [2] was 1.3 equiv and the IC50 [3] was 1.75 µM. For the same compound, the IC50 [4] was 0.3 µM.
In the case of `CN(CCCNc1ccnc2cc(Cl)ccc12)Cc1cc(=O)c(OCc2ccccc2)cn1C1CC1`, the “Ratio IC50” value [1] is reported as 0.1, the IC50 [3] is reported as 0.07 µM and the IC50 [4] is reported as 0.15 µM.
`CN(CCCNc1ccnc2cc(Cl)ccc12)Cc1cc(=O)c(O)cn1C1CC1` gave a Ratio IC50 [1] of 1.5, an IC50 [2] of 5.24 equiv and an IC50 [3] of 0.36 µM. The IC50 [4] was 0.17 µM.
With `O=c1cc(CNCCCCCCNc2ccnc3cc(Cl)ccc23)n(C2CC2)cc1O` the “Ratio IC50” value [1] was 2.7, the IC50 [2] was 1.39 equiv and the IC50 [3] was 0.08 µM. For the same compound, the IC50 [4] was 0.03 µM.
In the case of `O=c1cc(CNCCNc2ccnc3cc(Cl)ccc23)n(C2CC2)cc1OCc1ccccc1`, the “Ratio IC50” value [1] is reported as 1, the IC50 [2] is reported as 0.56 equiv and the IC50 [3] is reported as 0.04 µM. For the same compound, the IC50 [4] was 0.21 µM.
In the case of `C[C@@H]1CC[C@H]2[C@@H](C)C(=O)O[C@@H]3O[C@@]4(C)CC[C@@H]1[C@]32OO4` [ARTEMISININ], the “Ratio IC50” value [1] is reported as 0.4, the IC50 [3] is reported as 0.004 µM and the IC50 [4] is reported as 0.009 µM.
With `Cn1cc(O)c(=O)cc1CNCCCNc1ccnc2cc(Cl)ccc12` the Ratio IC50 [1] was 2.2, the IC50 [2] was 6.12 equiv and the IC50 [3] was 0.36 µM. For the same compound, the IC50 [4] was 0.12 µM.
`CCN(CC)CCCC(C)Nc1ccnc2cc(Cl)ccc12` (configuration not stated) [CHLOROQUINE] gave an IC50 [2] of 1.9 equiv.
For `O=c1cc(CNCCCNc2ccnc3cc(Cl)ccc23)n(C2CC2)cc1OCc1ccccc1`, the “Ratio IC50” value [1] was 7.1, the IC50 [2] was 0.22 equiv and the IC50 [3] was 1.71 µM. For the same compound, the IC50 [4] was 0.19 µM.
For `CN(CCCNc1ccnc2cc(Cl)ccc12)Cc1cc(=O)c(OCc2ccccc2)cn1C`, the “Ratio IC50” value [1] was 6.9, the IC50 [2] was 1.98 equiv and the IC50 [3] was 2.08 µM. For the same compound, the IC50 [4] was 0.39 µM.
Compound `Cn1cc(O)c(=O)cc1CNCCCCCCNc1ccnc2cc(Cl)ccc12` has a Ratio IC50 [1] of 1.7, an IC50 [2] of 0.7 equiv and an IC50 [3] of 0.97 µM. For the same compound, the IC50 [4] was 0.15 µM.
With `Cn1cc(OCc2ccccc2)c(=O)cc1CNCCCCNc1ccnc2cc(Cl)ccc12` the “Ratio IC50” value [1] was 2.2, the IC50 [2] was 0.42 equiv and the IC50 [3] was 0.27 µM. The IC50 [4] was 0.24 µM.
For `Cn1cc(OCc2ccccc2)c(=O)cc1CNCCCCCCNc1ccnc2cc(Cl)ccc12`, the “Ratio IC50” value [1] was 0.4, the IC50 [2] was 0.51 equiv and the IC50 [3] was 0.15 µM. It also gave an IC50 [4] of 0.04 µM.
With `Cn1cc(O)c(=O)cc1CNCCCCNc1ccnc2cc(Cl)ccc12` the Ratio IC50 [1] was 0.1, the IC50 [3] was 0.72 µM and the IC50 [4] was 0.67 µM.
With `O=c1cc(CNCCCCCCNc2ccnc3cc(Cl)ccc23)n(C2CC2)cc1OCc1ccccc1` the Ratio IC50 [1] was 7.5, the IC50 [2] was 0.071 equiv and the IC50 [3] was 0.32 µM. For the same compound, the IC50 [4] was 0.004 µM.
